Measurements from publication PMC12655551, “Design, Synthesis, and Evaluation of Pyrrole-Based Selective MAO-B Inhibitors with Additional AChE Inhibitory and Neuroprotective Properties Identified via Virtual Screening” (Pharmaceuticals, 2025).

Tested on: isolated rat brain mitochondria
Test: Toxicity of compounds alone on isolated rat brain mitochondria (MDA, GSH)
Assay type: cell-based
Settings: compound alone, 100 μM, vs non-treated mitochondria
Description: Two types of buffers were used for the isolation of the rat brain synaptosomes and mitochondria. Buffer A was 5 mM HEPES and 0.32 M Sucrose; Buffer B was 290 mM NaCl, 0.95 mM MgCl2 × 2H2O, 10 mM KCl, 2.4 mM CaCl2 × 2H2O, 2.1 mM NaH2PO4, 44 mM HEPES, 13 mM D-Glucose. For the gradient centrifugation, Percoll reagent was used. A stock solution of 90% Percoll was used to prepare 16%, 10% and 7.5% solutions. All the solutions were used as described below. Immediately after harvesting, synaptosomes, microsomes, and mitochondria were incubated with the exam compounds for 1 h. For assessing the possible neurotoxicity of the most MAOB active compounds, the sub-cellular fractions were incubated with 100 µM of them, and for evaluating their possible neuroprotective and antioxidant activities in different models of neurotoxicity, the sub-cellular fractions were incubated with 50µM of them. The protein measurement of all the sub-cellular fractions was made by the method of Lowry et al., 1951 [57].
The mitochondria were prepared by multiple differential fractionation using a Percoll gradient.
After incubation of the mitochondria, 0.3 mL 0.2% TBA and 0.25 mL sulfuric acid (0.05 M) were added to stop the reaction. The tubes were maintained at 100 °C for 30 min. In the next stage, centrifugation of the tubes was carried out at 3500× g for 10 min. Assessment of the total quantity of MDA formed in each sample was measured in the supernatant at 532 nm.
After incubation of mitochondria, 0.04% DTNB was mixed with the mitochondrial suspensions in 0.1 M phosphate buffer (pH 7.4). The absorbance of the yellow product was measured at 412 nm.

## Cc1ccc(C)n1C(Cc1cnc[nH]1)C(=O)O (stereo not shown) [EM-DC-19, 2-(2,5-dimethyl-1H-pyrrol-1-yl)-3-(2H-imidazol-4-yl)propanoic acid]
  decrease of GSH level compared to the control: 25%
  increase of MDA production compared to the control: 50%

## Cc1ccc(C)n1-c1ccc(CC(=O)O)cc1 [EM-DC-27, [4-(2,5-dimethyl-1H-pyrrol-1-yl)phenyl]acetic acid]
  decrease of GSH level compared to the control: 25%
  increase of MDA production compared to the control: 70%
